What was measured:
[1] = target: B. infantis OpuAR protein (OpuAR-Strep-tag II recombinant protein) (Bacillus infantis NRRL B-14911); test: SEC; HiLoad 16/600 Superdex 200 pg; 2 ml of affinity-purified OpuAR (1.5 mg/ml) loaded straight after purification; 100 mM KPP (pH 8), 300 mM NaCl; column standardised with thyroglobulin, albumin, ovalbumin and cytochrome C
[2] = test system: opuAA-treA reporter activity; test: opuAA-treA reporter fusion TreA enzyme activity assay; type: cell-based, Bacillus subtilis; settings: strain STHB10 (OpuAR+), SMM with 1.2 M NaCl, 1 mM compatible solute
Text: opuAAB.infantis′-treA reporter gene fusions were constructed using primers opuAR treA Frag1/2 rev and either opuAR treA Frag1/4 for (Supplementary Table S2) to amplify a 1940-bp DNA fragment from chromosomal DNA of B. infantis NRRL B-14911, including the predicted opuA promoter region and the coding region of opuAR, or primer opuAR treA Frag2 for, to generate a fragment lacking the opuAR gene. PCR products, which had been cut with BamHI and SmaI, were cloned into the vector pJMB1 ([Hoffmann et al., 2013]). This vector carries a promoterless treA gene, whose gene product [phospho-α-(1,1)-glucosidase] can be assayed and photometrically quantitated with the chromogenic substrate α-PNPG ([Gotsche and Dahl, 1995]). The plasmids resulting for the construction of the treA transcriptional reporter gene fusions were named pSTH33 (opuAR^+/opuAAB.i-treA) and pSTH34 (opuAR^-/opuAAB.i-treA) (Supplementary Table S3). All treA reporter gene fusions were stably integrated as a single copy into the chromosome of various B. subtilis strains at the amyE gene; all of these strains carry a gene disruption mutation of the native chromosomal treA gene of B. subtilis to allow the assignment of the measured TreA enzyme activity to the reporter gene constructs (Supplementary Table S1).
Aliquots (1.5 ml) from cultures of B. subtilis strains carrying chromosomal opuAAB.i′-treA reporter operon gene fusions (Supplementary Table S1) were used to monitor the expression levels by assaying the TreA reporter enzyme activity as described previously using the chromogenic substrate α-PNPG ([Gotsche and Dahl, 1995]). The TreA-specific activity is expressed in units per milligram of protein. Protein concentrations were estimated from the optical density of the cell culture harboring the treA reporter operon gene fusion ([Miller, 1972]).
FIGURE 6 Influence of the B. subtilis GbsR-like regulators on the expression of opuA from B. infantis and its transcriptional response to the presence of compatible solutes. (A) Genetic structure of the opuAA-treA transcriptional reporter fusions. (B) The opuAA-treA reporter gene fusions, either including or lacking the B. infantis opuAR gene, were integrated into the chromosome of the B. subtilis strain STHB05; it carries gene disruption mutations of all three GbsR-like regulators, resulting in strains STHB10 (OpuAR^+) and STHB11 (OpuAR^-). […] The opuAA-treA reporter strains were grown in SMM to early exponential growth phase (OD578 1–1.5) and then assayed for TreA reporter enzyme activity. The shown data represent four independent biological replicates and each culture was assayed twice. (C) Strain STHB10 (opuAR^+/opuAA-treA) was grown in SMM with increasing NaCl concentrations until each of these cultures reached mid-exponential growth phase (OD578 of about 1.5) and were then harvested for TreA reporter enzyme activity assays. The given data are the means and standard deviations of four independent biological replicates and each culture was assayed twice. (D) Expression of the opuAA-treA reporter gene construct in response to extracellular provided compatible solutes. The opuAA-treA reporter fusion strains STHB10 (OpuAR^+) and STHB11 (OpuAR^-) were cultivated in SMM containing 1.2 M NaCl either in the absence or presence of 1 mM of the indicated compatible solutes. The opuAA-treA reporter fusion strains were grown to early exponential growth phase (OD578 1–1.5) and then assayed for TreA reporter enzyme activity. The given data are the means and standard deviations of four independent biological replicates and each culture was assayed twice.
To identify possible effector molecules for the B. infantis OpuAR protein, we conducted a series of in vivo experiments in which we assessed any possible inducing effects of compatible solutes on opuAA-treA transcriptional activity in an OpuAR-dependent fashion (Figure 6D).

stoichiometry N [1]	Compound	Induction of opuAA-treA reporter activity (OpuAR-dependent) [2]
2	B. infantis OpuAR protein (OpuAR-Strep-tag II recombinant protein) (natural protein)	–
–	C[N+](C)(C)CCOS(=O)(=O)[O-] [choline-O-sulfate]	did not serve as inducers
–	CC1=NCC[C@@H](C(=O)O)N1 [ectoine]	did not serve as inducers

— publication PMC6207618, “The GbsR Family of Transcriptional Regulators: Functional Characterization of the OpuAR Repressor” (Frontiers in Microbiology, 2018)
